In publication PMC7154662, “Structural Insight into IAPP‐Derived Amyloid Inhibitors and Their Mechanism of Action” (Angewandte Chemie (International Ed. in English), 2020):
“Also recorded” adds a separate entry of the source.

Columns and labels:
[1] = Morphology by TEM, DIC and fluorescence microscopy; type: physicochemical; settings: DIC experiments; 10 mM sodium phosphate buffer, pH 7.4 (1% v/v HFIP)
Method: Figure 1 R3‐GI self‐assembly. […] On the right, the binding curve is shown. The estimated app. […] Data are means (±SEM) from three binding curves. […] Scale bar: 10 μm.
(§1) Peptide synthesis and sample preparation for NMR
(§2) The other peptide samples were
(§3) Sample preparation for DLS, TEM and DIC
(§4) (containing 1% v/v HFIP) without filtration. The Fluor-647-Aβ40 was ordered from AnaSpec, […]
(§5) for 20 min before capturing images. […]
(§6) microscope, as described elsewhere. An oil immersion objective (Apo-TIRF 100x Oil/NA 1.49, Nikon) was used for all measurements.
(§7) Picoquant) was used for excitation. Fluorescence emission was detected using an avalanche […]
(§8) measurements were carried out at 22 °C.
(§9) (measured before the back aperture of the objective). […]
(§10) temperature within 2-5 min following solution preparation. The determined app. Kd is means (±SD) from three binding curves.
Cross-linking studies were performed as previously described. […]
(§11) Effects of peptides on amyloidogenesis of Aβ40 were determined using a previously established ThT binding assay as described. […] ThT binding was determined immediately by measuring fluorescence emission at 486 nm following excitation at 450 nm using a 2030 Multilabel Reader VictorX3 (PerkinElmer Life Sciences). […]
(§12) PA 19440, USA; Formvar/Carbon 300 mesh copper coated). Samples were measured immediately employing an EM 10 CR (Zeiss, Germany). […]

[2] = Solution-state NMR (NOESY, chemical shifts) structural characterization; type: physicochemical
Method: as §1, §2, §3, §4, §5, §6, §7, §8, §9
quantify the signal-to-noise ratio. For the R3-GI peptide, the signal to noise ratio of the isolated Thr-CH3 peak amounts to […]. For the reference peptide, the signal to noise of the single Thr-CH3 peak corresponds to 216.82. The ratio of concentrations amounts to a factor of 20.83. Otherwise, 1D-1H spectra were recorded under identical conditions. […]
images in which we determined the partitioning coefficient of the R3-GI solution (Fig. S3). […]
correlation time which in turn would result in higher NOESY cross peak intensities. A) H- H NOESY spectrum recorded for a 500 μM solution of R3-GI, using a salt concentration of 2.5 mM (black) and 50 mM NaCl (red), respectively. […]
recorded for a 500 μM solution of R3-GI, setting the pH to 5.98 (blue), 6.87 (green), 7.06 (red) and 7.23 (black). […]

Aβ40 [3] = assay: Solubility of 15N-labeled Aβ40 in presence of ISM (NMR titration); type: binding; settings: for Aβ40 signal at tenfold excess of ISM, in words: molar ratio Aβ/ISM 1:10; for Effect on Aβ40 solubility upon titration, in words: titration with / incubation of monomeric Aβ40
Method: (§13) Figure 5 ISM–substrate interactions. A) ^15N‐filtered 1D‐^1H spectra of a 20 μM sample of ^15N‐labeled Aβ40 in the absence (black) and presence of the ISM inhibitor K3‐L3‐K3‐GI (top), and the non‐inhibitor G3‐GI (bottom). […] At this molar excess, the intensities of Aβ40 are reduced only to ca. 28 % when G3‐GI is titrated to Aβ40. […] At a molar ratio of 1:10 for Aβ/inhibitor, the spectrum is dominated by the resonances of the inhibitor. […] B) 2D ^1H‐^15N HSQCs of Aβ40 incubated with K3‐L3‐K3‐GI (red) at a molar ratio of 1:1. The Aβ40 reference spectrum is represented in black. […] C) Comparison of the DIC and fluorescence microscopy images of R3‐GI/Aβ40, K3‐L3‐K3‐GI/Aβ40, and G3‐GI/Aβ40. […] Scale: 10 μm.

Aβ40 [4] = assay: Co-localization of Fluos-labeled ISMs with Fluor-647-Aβ40 (DIC and fluorescence microscopy); type: binding; settings: incubated at room temperature for 20 min
Method: as §13, §1, §2, §3
(containing 1% v/v HFIP) without filtration. The Fluor-647-Aβ40 was ordered from AnaSpec,
for 20 min before capturing images.
microscope, as described elsewhere. An oil immersion objective (Apo-TIRF 100x Oil/NA
1.49, Nikon) was used for all measurements.
Picoquant) was used for excitation. Fluorescence emission was detected using an avalanche
as §8
(measured before the back aperture of the objective).

Aβ40/42 = settings: ref 1b; cited from earlier work
From the text: The design of the ISMs was based on the finding that amyloids are generally composed of a β‐sheet‐turn‐β‐sheet structural motif and that IAPP uses the same two binding regions for both its amyloid self‐ and its cross‐amyloid hetero‐assem ... || Our studies focused on the two ISMs R3‐GI and K3‐L3‐K3‐GI for the following reasons (Figure 1 A and Table S1 in the Supporting Information): 1) R3‐GI was used in solution‐state NMR studies as the intrinsically low solubility of all ISMs with hydrophobic linkers makes them unsuitable for solution‐state NMR spectroscopy. […] Multivalent interactions between an inhibitor molecule and an amyloid fibril have been exploited by Wall and co‐workers,27 who designed an α‐helical peptide with a lysine basic side chain to interact with negatively charged residues exposed on the surface of amyloid structures. These inhibitors are used as imaging reagents and stabilize a fibrillar fold. In contrast, ISMs prevent amyloid form ...

Aβ40 [5] = assay: TEM of ISM-induced Aβ40 aggregates; type: biochemical; settings: equimolar amount of K3-L3-K3-GI
Method: Figure 6 Structural characterization of K3‐L3‐K3‐GI‐induced Aβ40 aggregates. A, B) TEM images of Aβ40 in the absence (A) and presence (B) of an equimolar amount of K3‐L3‐K3‐GI. Scale bar: 200 nm. C) 2D ^13C,^15N MAS solid‐state NMR correlation spectra obtained for K3‐L3‐K3‐GI‐induced Aβ40 aggregates (red). To prepare the sample, a 20 μM solution of monomeric Aβ40 was incubated with a 1.23‐fold molar excess of K3‐L3‐K3‐GI. For reference, the correlation spectrum obtained for Aβ40 fibrils is shown in black. To prepare the Aβ40 fibril sample, monomeric Aβ40 was grown using 5 % seeds, following the protocol described by Lopez and co‐workers.17 (D) Cα–Cβ chemical shift differences for K3‐L3‐K3‐GI‐induced Aβ40 aggregates (top). TALOS+^[19]‐predicted secondary structure propensity (bottom). […]
temperature within 2-5 min following solution preparation. The determined app. […]
as §11, §12

[6] = Solubility of ISMs (qualitative); type: physicochemical
Aβ40 [7] = assay: Effects of ISM on Aβ40 amyloid self-assembly (ThT binding assay); type: biochemical; settings: Aβ40/ISM 1/1, 50 mM sodium phosphate buffer, pH 7.4, 100 mM NaCl, 1% HFIP, room temperature, 3 assays
Method: as §10
Cross-linking studies were performed as previously described. Briefly, R3-GI was dissolved at 500 μM in aqueous 10 mM sodium phosphate buffer, pH 7.4, and incubated for the indicated time points at room temperature, cross-linked with aqueous glutaraldehyde (25%) (Sigma-Aldrich), precipitated with aqueous trichloroacetic acid (TCA) (10%) and pellets were dissolved in NuPAGE sample buffer and subjected to NuPAGE electrophoresis in 4-12% Bis-Tris gels with MES running buffer. Equal amounts of peptide were loaded in all lanes. Coomassie blue staining was performed following standard protocols.
Dynamic light scattering experiments […]
as §11
(A) Amyloid self-assembly of Aβ40 alone and its mixtures (1:1) with K3-L3-K3-GI or L3-GI (control) determined using the ThT binding assay (means (±SEM), 3 assays). […]
7 days aged solutions from (A) were added to PC12 cells; cell damage was assessed by the MTT reduction assay (means (±SEM), 3 assays (n=3 each)). […]

Aβ = settings: cited from earlier work
From the text: (§14) Single‐site binding events are the classical paradigm for a drug–enzyme complex. Because of the low affinity and the lack of deep binding pockets, this class of inhibitors is not very effective for amyloids (Figure 7, top). Nevertheless, it has been shown that multi‐ligand interactions of tramisprosate with monomeric Aβ42 can prevent amyloid oligo ...

[8] = Saturation transfer difference (STD) NMR; type: physicochemical; settings: R3-GI 1.25 mM, control peptide 60 μM, 10 mM sodium phosphate buffer, pH 7.4 (1% v/v HFIP, 10% v/v D2O)
Aβ42 = settings: multi-ligand interactions with monomeric Aβ42; cited from earlier work
From the text: as §14

[9] = 20 μM 15N-labeled Aβ40, molar ratio 1:1

ATQRLANFLVH-GGG-NF(N-Me)GA(N-Me)ILS [G3-GI]
Macroscopic particles in solution (DIC) [1]: macroscopic particles are observed
Long-range NOE contacts (loop formation) [2]: only weak long‐range NOEs if any
Aβ40 solubility at 1:1, in words (Aβ40 [3]; [9]): almost unaffected
Aβ40 resonance intensity remaining at tenfold excess of ISM (Aβ40 [3]; 20 μM 15N-labeled Aβ40, molar ratio Aβ/ISM 1:10): ca. 28%
Aβ40 signal at tenfold excess of ISM, in words (Aβ40 [3]): high intensities were observed
Effect on Aβ40 solubility upon titration, in words (Aβ40 [3]): no effects on Aβ40 solubility were observed
Co-localization with Aβ40 (Aβ40 [4]): no co‐localization with Aβ40
Aβ amyloid self-assembly inhibition, in words (Aβ40/42): non‐inhibitor

KKK-ATQRLANFLVH-LLL-NF(N-Me)GA(N-Me)ILS-KKK [K3-L3-K3-GI]
Aβ40 remaining in solution (Aβ40 [3]; [9]): 9%
Aβ40 chemical shift changes upon ISM addition (Aβ40 [3]; 2D 1H-15N HSQC, molar ratio 1:1): not affected; also recorded: No Aβ40 chemical shift changes were observed
Aβ40 signal at tenfold excess of ISM, in words (Aβ40 [3]): almost empty; also recorded: disappear quantitatively
Effect on Aβ40 solubility upon titration, in words (Aβ40 [3]): precipitated quickly out of solution
Co-localization with Aβ40 (Aβ40 [4]): co‐localize with Aβ40
Morphology of ISM-induced Aβ40 aggregates (Aβ40 [5]): mainly amorphous aggregates
Solubility, in words [6]: reasonably soluble
Function of K3-L3-K3-GI as analogue of L3-GI (Figure S1) (Aβ40 [7]): functional analogue

CSc1ccc(/C=C2/C(C)=C(CC(=O)O)c3cc(F)ccc32)cc1 [sulindac sulfide]
Effect on Aβ peptide aggregation (Aβ): accelerates Aβ peptide aggregation

GVAEPEQDCAVTSGE
STD NMR signals [8]: monomeric
STD NMR signals ([8]; listed as monomeric peptide used as a control): no STD signals

NCCCS(=O)(=O)O [tramisprosate]
Effect on Aβ42 amyloid oligomer formation (Aβ42): can prevent amyloid oligomer formation
